These results are taken from paper PMC7821381, “Multi-Targeted Anticancer Activity of Imidazolate Phosphane Gold(I) Compounds by Inhibition of DHFR and TrxR in Breast Cancer Cells” (Frontiers in Chemistry, 2021).

Usually IC50 stands for the midpoint of a concentration-inhibition curve. A lower IC50 goes with higher potency.

In one data set the test system is MDA-MB231 cells. The data set can be described thus: MTT cell viability assay on MDA-MB231 cells. The conditions noted are these: MDA-MB231, 48 h, ± S. D. Format: cell-based, human. The text has this:
(§1) Human MDA-MB-231 (ER–/PR–/HER2–) and SK-BR-3 (ER–/PR–/HER2+) cells were obtained from American Type Culture Collection (Rockville, MD) and cultured in Dulbecco's Modified Essential Medium (DMEM, Gibco, Life Technologies) supplemented with 10% fetal bovine serum (FBS, Gibco, Life Technologies) and 1% penicillin–streptomycin (Gibco, Life Technologies). A17 cells were established from a spontaneous lobular carcinoma that arose in an FVB/neuT mouse (Galiè et al., [2005]), and maintained in DMEM plus 20% FBS and 1% penicillin-streptomycin. Cells were cultured at 37°C under humidified atmosphere with 5% CO2.
Stock solutions were prepared for each gold(I) compound (50 mM) using dimethyl sulfoxide (DMSO) (Sigma-Aldrich) as solvent. The effects of gold(I) compounds on SKBR3, A17 and MDA-MB231 cells viability were evaluated by seeding, respectively, 10, ^*10^3, 2.5 ^*10^3, 7, ^*10^3 cells/well in 96 wells plates in complete medium (DMEM supplemented with FBS) and compared to those of cisplatin. The day after, fresh medium containing vehicle alone (DMSO, 1 % v/v final concentration) or increasing concentrations of each compound ranging from 0.1 to 100 μM was added. Cell viability was determined using a MTT [3-(4,5-dimethylthiazol-2-yl)-2,5-diphenyl-2H-tetrazolium bromide Sigma Aldrich, St. Louis, MO] assay, which is based on the conversion of MTT to formazan crystals by mitochondrial enzymes, after 24, 48, and 72 h. The formazan deposits were dissolved in DMSO and the absorbance of each well was measured at 540 nm in Multiskan Ascent 96/384 Plate Reader. Each drug concentration was evaluated with 8 replicates and each experiment was repeated three times. At the end of the experiments a dose–response curve was plotted, and the IC50 concentrations were determined. […] Quantitative data are presented as means ± SEM. […]
(§2) IC50 values were calculated for each of the cell lines tested, by fitting the concentration-effect curves data obtained in the three experiments with the sigmoid-Emax model using nonlinear regression, weighted by the reciprocal of the square of the predicted effect.
On the technique in general: Tetrazolium assays rely on reduction of a dye to a coloured formazan, in cell work by metabolically active cells.

The target of data set [1] is T1, bovine serum albumin (BSA) (Bos taurus, UniProt P02769).
T1 construct: purchased Sigma Aldrich
Briefly: BSA tryptophan fluorescence quenching. It is filed as binding. The following applies: Stern-Volmer constant, Tris-HCl pH 7.4, room temperature. On the procedure:
The protein-binding studies were performed by tryptophan fluorescence quenching experiments using bovine serum albumin (BSA) from Sigma Aldrich prepared in 10 mM Tris-HCl buffer pH 7.4, 10 mM NaCl. The concentration was determined by measuring the absorbance at 280 nm. Assuming a molecular weight of 66,400 and a molar extinction coefficient at 280 nm of 43,824 M^−1 cm^−1. Fluorescence measurements were recorded on a Hitachi 4,500 spectrofluorometer by keeping the concentration of BSA constant (15 × 10^−6 M) while increasing compounds 5 or 6 concentrations (5 mM in DMSO) were added to protein solution at room temperatures. Protein fluorescence intensity was recorded after each successive addition of gold compound solution and equilibration (ca. 5 min). Fluorescence spectra were recorded from 300 to 450 nm at an excitation wavelength of 285 nm. The value of Stern Volmer constants of the different metal complexes to BSA was evaluated following Equation 3 and fluorescent values were corrected by Equation 2.
Protein fluorescence intensity was recorded after each successive addition of complex solution and equilibration (ca. 5 min). Fluorescence spectra were recorded from 300 to 450 nm at an excitation wavelength of 285 nm. The value of Stern Volmer constants of the different metal complexes to BSA were evaluated following the equation 3 and fluorescent values were corrected by equation 2.

In data set [2] the test system is thioredoxin reductase (TrxR). The conditions noted are these: for Specific enzymatic activity of TrxR: SKBR3, 12 h treatment, 8 μM (maximum inhibition), control 4.07 ± 0.32; for TrxR residual activity: SKBR3 cells, versus control cells. On the procedure:
The assay was performed as previously reported (Galassi et al., [2012]) in 0.2 M Na, K-phosphate buffer (pH 7.4) containing 2 mM EDTA. The assay contained 0.12 mM NADPH and different amounts of cell lysate. The reaction was initiated by the addition of 3 mM 5,5′-dithiobis (2-nitrobenzoic acid) (DTNB) and the increase of absorbance was monitored at 412 nm over 5 min at 25°C.

A further data set deals with SKBR3 cells. The data set can be described thus: MTT cell viability assay on SKBR3 cells. Format: cell-based, human. The following applies: for IC50: SKBR3, 48 h, ± S. D.; for cytotoxic activity in MTT screening: SKBR3 cells, 72 h (Figure 1S) and 48 h (Figure 2).
From the text: as §1
Stock solutions were prepared for each gold(I) compound (50 mM) using dimethyl sulfoxide (DMSO) (Sigma-Aldrich) as solvent. The effects of gold(I) compounds on SKBR3, A17 and MDA-MB231 cells viability were evaluated by seeding, respectively, 10, ^*10^3, 2.5 ^*10^3, 7, ^*10^3 cells/well in 96 wells plates in complete medium (DMEM supplemented with FBS) and compared to those of cisplatin. The day after, fresh medium containing vehicle alone (DMSO, 1 % v/v final concentration) or increasing concentrations of each compound ranging from 0.1 to 100 μM was added. Cell viability was determined using a MTT [3-(4,5-dimethylthiazol-2-yl)-2,5-diphenyl-2H-tetrazolium bromide Sigma Aldrich, St. Louis, MO] assay, which is based on the conversion of MTT to formazan crystals by mitochondrial enzymes, after 24, 48, and 72 h. The formazan deposits were dissolved in DMSO and the absorbance of each well was measured at 540 nm in Multiskan Ascent 96/384 Plate Reader. Each drug concentration was evaluated with 8 replicates and each experiment was repeated three times. At the end of the experiments a dose–response curve was plotted, and the IC50 concentrations were determined. Statistical analysis was performed using One-Way ANOVA analysis of variance followed by Dunnett's Multiple Comparison Test. Quantitative data are presented as means ± SEM. Differences were considered significant at ^*P ≤ 0.0332; ^**P ≤ 0.0021; ^***P ≤ 0.0002; ^****P ≤ 0.0001.
as §2

The next data set has as its system DAPI-ct-DNA complex. The data set can be described thus: Minor groove displacement assay with DAPI (DAPI-ct-DNA). The following applies: competitive DAPI displacement, fluorescence quenching, pH 7.4. Format: binding, calf. On the procedure: The changes in the emission spectra of DAPI complex with the DNA in 10 mM tris-HCl buffer at pH 7.4, 10 mM NaCl, were monitored upon addition of increasing concentrations of gold-compounds 5 and 6 at room temperature. Fluorescence quenching data were evaluated after excitation of DAPI-ct-DNA complex at 338 nm and recording the spectra from 400 to 600 nm. Values of Ksv constants were evaluated using Equation 3 and the quenching fluorescence values obtained were corrected according to Equation 2.

The next data set has as its system calf thymus DNA (ct-DNA). Briefly: UV-Vis absorption titration with ct-DNA. The conditions noted are these: as restated in the discussion. Format: binding. How it is done: Stock solutions of calf thymus DNA (ct-DNA) (Sigma–Aldrich) were prepared by dissolving the DNA powder overnight in 10 mM Tris–HCl pH 7.4, 10 mM NaCl and incubated under stirrer at 4°C for 12h. […] The concentration of the ct-DNA solution was determined by UV absorbance at 260 nm. The molar absorption coefficient at 260 nm, was taken as 6,600 M^−1 cm^−1 (Marmur, [1961]). Stock solutions of gold(I) complexes (compounds 5 and 6) were prepared in DMSO. Absorption titration experiments performed with fixed concentrations of the different gold(I) complexes (25 μM, in 10 mM Tris–HCl pH 7.4, 10 mM NaCl), gradually increasing the concentration of DNA. After addition of DNA to the compounds, the resulting solution was allowed to […] equilibrate at room temperature for 5 min. Then, the sample solution was scanned in the range 220–600 nm. For the different compounds the binding constant (Kb) was determined from the spectroscopic titration data using the following equation
[DNA]/(εa-εf)=[DNA]/(εb-εf)+1/Kb(εb-εf),Equation 1
where [DNA] is the concentration of DNA in base pairs, the apparent absorption coefficient (εa) was obtained by calculating Aobsd/[compound]. The terms εf and εb correspond to the extinction coefficient of free (unbound) and the fully bound compound, respectively. A plot of [DNA]/(εa-εf) vs. [DNA] will give a slope 1/(εb-εf) and an intercept 1/Kb(εb-εf). […]

T1 sequence (P02769 25-607): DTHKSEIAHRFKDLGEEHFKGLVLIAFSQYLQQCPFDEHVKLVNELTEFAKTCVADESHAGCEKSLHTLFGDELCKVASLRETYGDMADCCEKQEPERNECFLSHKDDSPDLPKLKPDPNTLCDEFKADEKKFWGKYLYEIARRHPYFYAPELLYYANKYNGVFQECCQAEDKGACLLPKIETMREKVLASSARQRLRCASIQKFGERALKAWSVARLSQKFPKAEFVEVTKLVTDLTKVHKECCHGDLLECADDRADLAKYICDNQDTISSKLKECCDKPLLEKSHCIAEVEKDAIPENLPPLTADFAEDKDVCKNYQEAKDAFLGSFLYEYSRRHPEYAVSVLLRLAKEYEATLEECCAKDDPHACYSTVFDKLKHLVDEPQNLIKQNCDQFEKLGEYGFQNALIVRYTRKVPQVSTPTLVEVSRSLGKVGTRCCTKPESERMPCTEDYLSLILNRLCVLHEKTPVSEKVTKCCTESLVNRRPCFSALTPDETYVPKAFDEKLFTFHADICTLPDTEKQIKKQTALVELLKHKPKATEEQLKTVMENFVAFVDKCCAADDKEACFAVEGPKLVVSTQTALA

Turning to “4,5-dichloro-imidazolate-1yl-gold(I)-(triphenylphosphane) [Compound 6]”, the IC50 in the data set with MDA-MB231 cells was 3.46 ± 0.29 µM. For the same substance, the “BSA Ksv” value in data set [1] is 2.04 ± 0.71 10^4 M^−1. Besides, in data set [2], the “Specific enzymatic activity of TrxR” value is recorded as 1.51 ± 0.04 (8 μM) mU/mg and the TrxR residual activity came to 49%. Further, in the data set with SKBR3 cells, the IC50 was found to be 4.55 ± 0.25 µM and the “cytotoxic activity in MTT screening” value is recorded as “most active”. Besides, the “DAPI-ct-DNA Ksv” value with DAPI-ct-DNA complex is listed as 4.98 ± 0.08 10^3 M^−1. The “binding constant with ct-DNA” value with calf thymus DNA (ct-DNA) was found to be 3.44 mM⁻¹.

Regarding “4,5-dicyano-imidazolate-1yl-gold(I)-(triphenylphosphane) [Compound 5]”, the IC50 with MDA-MB231 cells amounted to 7.03 ± 0.76 µM. Besides, the “BSA Ksv” value in data set [1] is on record as 2.46 ± 0.82 10^4 M^−1. In addition, in data set [2], the “Specific enzymatic activity of TrxR” value is 1.98 ± 0.06 (8 μM) mU/mg and the TrxR residual activity turned out to be 37%. In addition, in the data set with SKBR3 cells, it took 5.36 ± 0.35 µM to reach half-maximal inhibition (IC50) and the “cytotoxic activity in MTT screening” value is “most active”. The “DAPI-ct-DNA Ksv” value in the data set with DAPI-ct-DNA complex was 6.12 ± 0.09 10^3 M^−1. Further, the “binding constant with ct-DNA” value in the data set with calf thymus DNA (ct-DNA) turned out to be 1.46 mM⁻¹.
